Assay results published in patent US20260130906A1, “THERAPY COMPRISING ANTI-CD19 ANTIBODY AND SUMO-ACTIVATING ENZYME INHIBITOR” (TAKEDA PHARMACEUTICAL COMPANY LIMITED, priority 2021, published 2026).

What was measured:
[1] = test system: OCI-Ly10 human xenograft tumor model; assay: Study 2: OCI-Ly10 human xenograft tumor model; format: in vivo, CB17 SCID mice; settings: for GRI % / Tumor volume on Day 25 (±SEM): OCI-Ly10; for GRI %: Day 25, vs vehicle; for Tumor volume on Day 25 (±SEM): in mm³ (unit assumed); for tumor growth inhibition as a single agent (in words): human OCI-Ly10 DLBCL mouse model
Protocol: (§1) The differences in the tumor growth trends over time between pairs of treatment groups were assessed by fitting each animal's data to a simple exponential growth model and comparing the mean growth rates of the two groups, as described in more detail below. The difference in the growth rates was summarized by the GRI, which is the reduction in growth rate experienced by the treatment group relative to that of the reference group, expressed as a fraction of the vehicle growth rate.
(§2) A GRI greater than 100% is interpreted as tumor regression when the vehicle group is the same as the reference group. A negative value of the GRI means that the tumors in the treatment group grew faster than the tumors in the reference group. Statistical significance was determined using an unpaired t-test.
Low tumor volumes can cause problems with the data analysis, so all measurements below 25 cubic mm (including 0 values) were excluded from the analysis. After this exclusion step, the tumor volume was assumed to follow an exponential growth model. More specifically, for a given animal and treatment group,
Combination analysis was performed to determine if there was a benefit from combining drug treatments. This analysis was also based on the estimated tumor growth rates. The measure of synergy was defined as
Here, μAB, μA, μB, and μControl are the mean growth rates for the combination, drug A, drug B, and control groups, respectively. As before, μV is the mean tumor growth rate for the vehicle group, which in most cases is the same as the control group. The standard error of the synergy score was calculated as the square root of the sum of squared standard errors across the four groups. The degrees of freedom were estimated using the Welch-Satterthwaite equation. A hypothesis test was performed to determine if the synergy score differed from 0. P-values were calculated by dividing the synergy score by its standard error and tested against a t-distribution (two-tailed) with the above-calculated degrees of freedom. A P value of less than 0.05 is statistically significant.
The combination results can be interpreted as follows. Statistically significant negative synergy scores indicate a synergistic combination (“Syn.”). Statistically significant positive synergy scores indicate a sub-additive combination (“Sub-add.”) when the combination performs better (i.e. has a lower growth rate) than the best performing single agent. Statistically significant positive synergy scores indicate an antagonistic combination (“Antag.”) when the combination performs worse than the best performing single agent. Scores that are not statistically significant should be considered additive (“Add.”).
OCI-Ly10 is a human DLBCL cell line. An OCI-Ly10 human xenograft tumor model was generated by subcutaneous inoculation in the flank of 8 week old female CB17 SCID mice (Charles River Laboratories, Wilmington, MA) with 4.0×10^6 OCI-Ly10 cells (cell suspension in 0.1 ml IMDM with Matrigel 1:1). When the mean tumor volume reached approximately 175 mm^3, the animals were randomized into one vehicle control group and 7 treatment groups (n=7/group) as described in Table 2a. Mice were then dosed with 20% HPβCD or Compound I-263a and/or tafasitamab over a 3 week period. In the combination treatment groups, I-263a was administered first, followed immediately by the administration of tafasitamab. Tumor growth and body weight were measured twice per week during the treatment and post-treatment periods, and mice were humanely euthanized once they had reached their humane endpoint. Tumors were measured using Vernier calipers and volumes were calculated using standard equation: V=W^2×L/2, where V=volume, W=width, and L=length for the tumor.
A 0.75 mg/mL stock solution of I-263a was formulated weekly in 20% HPβCD and administered intravenously (IV) based on an average body weight using a 0.2 mL dosing volume. Final dose of I-263a received was 7.5 mg/kg. […]

[2] = test system: Daudi human xenograft tumor model; assay: Study 1: Daudi human xenograft tumor model; format: in vivo, CB17 SCID mice; settings: for tumor growth inhibition as a single agent (in words): Daudi human Burkitt's lymphoma mouse model; for GRI % / Tumor volume on Day 21 (±SEM): Daudi; for GRI %: Day 21, vs vehicle; for Tumor volume on Day 21 (±SEM): in mm³ (unit assumed)
Protocol: as §1, §2
Low tumor volumes can cause problems with the data analysis, so all measurements below 25 cubic mm (including 0 values) were excluded from the analysis. After this exclusion step, the tumor volume was assumed to follow an exponential growth model. […]
Daudi is a human Burkitt's Lymphoma cell line. A Daudi human xenograft tumor model was generated by subcutaneous inoculation in the flank of 9 week old female CB17 SCID mice (Charles River Laboratories, Wilmington, MA) with 2.0×10^6 Daudi cells (cell suspension in 0.1 ml RPMI with Matrigel 1:1). When the mean tumor volume reached approximately 140 mm^3, the animals were randomized into one vehicle control group and seven treatment groups (n=7/group) as described in Table 1a. Mice were then dosed with 20% HPβCD or Compound I-263a and/or tafasitamab over a 3 week period. In the combination treatment groups, I-263a was administered first, followed immediately by the administration of tafasitamab. Tumor growth and body weight were measured twice per week during the treatment and post-treatment periods, and mice were humanely euthanized once they had reached their humane endpoint. Tumors were measured using Vernier calipers and volumes were calculated using standard equation: V=W^2×L/2, where V=volume, W=width, and L=length for the tumor.
A 0.8625 mg/mL stock solution of I-263a was formulated weekly in 20% HPβCD and administered intravenously (IV) based on an average body weight using a 0.2 mL dosing volume. Final dose of I-263a received was 7.5 mg/kg. I-263a was administered on a BIW schedule for 3 weeks (Days 0, 4, 7, 11, 14, 18). Tafasitamab was formulated prior to each injection in 0.9% saline at 0.354, 1.15, and 2.3 mg/mL. Final dose of tafasitamab received was 3, 10, or 20 mg/kg based on average body weight. Tafasitamab was administered intraperitoneally (IP) using a 0.2 mL dosing volume, on a BIW schedule for 3 weeks (Days 0, 4, 7, 11, 14, 18). The vehicle group received IV treatment with the vehicle for I-263a (20% HPβCD) on a BIW schedule for three weeks (Days 0, 4, 7, 11, 14, 18).
Statistical analysis for growth rate inhibition was performed on data up to and including Day 21.

[3] = test system: RAMOS; assay: ADCP assay (macrophages); format: cell-based; settings: macrophages pre-treated 1 μM TAK-981 and/or 1 nM tafasitamab, E:T 2:1, 3 h, FIG. 4
Protocol: Monocytes were positively selected from PBMCs using CD14 MicroBeads on a MACS LS column according to the manufacturer's protocol (Miltenyi Biotec). Isoltaed cells were re-suspended in RPMI medium supplemented with 10% FCS and 1× GlutaMax. Monocytes were maturated into macrophages in T-flasks for 6 to 7 days in the presence of 50 ng/ml M-CSF.
After maturation, macrophages were stained with 2 μM CFSE and detached using 5 mM EDTA and scraping. After washing with PBS, macrophages were re-suspended in medium containing either DMSO (negative control) or 1 μM TAK-981 and allowed to re-attach in 96 well culture plates for 16-24 hours. Target cells were stained using the CellTrace Violet Cell Proliferation Kit (Invitrogen) and co-cultured with pre-treated macrophages in the presence or absence of 1 nM tafasitamab for 3 hours at an E:T ratio of 2:1. The cells were detached using 0.05% Trypsin-EDTA and transferred into multi-well flow cytometry plates. Using flow cytometry the percentage of phagocytosis was evaluated, defined as the percentage of double positive cells out of all CellTrace Violet positive cells.

[4] = tafasitamab 3 mg/kg IP BIW 3 weeks
[5] = tafasitamab 10 mg/kg IP BIW 3 weeks
[6] = tafasitamab 20 mg/kg IP BIW 3 weeks
[7] = I-263a 7.5 mg/kg IV BIW 3 weeks

Compound	GRI % ([1]; tafasitamab 3 mg/kg IP BIW) [%]	GRI % ([1]; tafasitamab 10 mg/kg IP BIW) [%]	GRI % ([1]; tafasitamab 20 mg/kg IP BIW) [%]	Tumor volume on Day 25 (±SEM) [1, 4]	Tumor volume on Day 25 (±SEM) [1, 5]	Tumor volume on Day 25 (±SEM) [1, 6]	tumor growth inhibition as a single agent (in words) [1]	tumor growth inhibition as a single agent (in words) [2]	GRI % ([2]; tafasitamab 3 mg/kg IP BIW) [%]	GRI % ([2]; tafasitamab 10 mg/kg IP BIW) [%]	GRI % ([2]; tafasitamab 20 mg/kg IP BIW) [%]	Tumor volume on Day 21 (±SEM) [2, 4]	Tumor volume on Day 21 (±SEM) [2, 5]	Tumor volume on Day 21 (±SEM) [2, 6]	Phagocytosis [3]	GRI % ([1]; I-263a 7.5 mg/kg IV BIW) [%]	Tumor volume on Day 25 (±SEM) [1, 7]	GRI % ([2]; I-263a 7.5 mg/kg IV BIW) [%]	Tumor volume on Day 21 (±SEM) [2, 7]
Tafasitamab: humanized monoclonal antibody that targets the antigen CD19, engineered in the IgG Fc-region to enhance ADCC; sequences in Table 1	37	43	36	701 ± 94.2	745.1 ± 154.2	809.2 ± 129.1	inhibits tumor growth	inhibits tumor growth	24	28	38	1142 ± 135.1	1132.7 ± 116.5	835.2 ± 89.1	effectively phagocytosed				
Cc1sc(C(=O)c2cncnc2N[C@@H]2C[C@H](COS(N)(=O)=O)[C@@H](O)C2)cc1[C@@H]1NCCc2ccc(Cl)cc21 [Compound I-263a, [(1R,2S,4R)-4-{[5-({4-[(1R)-7-chloro-1,2,3,4-tetrahydroisoquinolin-1-yl]-5-methyl-2-thienyl}carbonyl)pyrimidin-4-yl]amino}-2-hydroxycyclopentyl]methyl sulfamate]							inhibits tumor growth	inhibits tumor growth							effectively phagocytosed	55	615.9 ± 106.4	32	1015.9 ± 137.9
